Measurements taken from US20160159816A1, “SUBSTITUTED THIENOPYRIMIDINES AND PHARMACEUTICAL USE THEREOF” (BAYER PHARMA AKTIENGESELLSCHAFT, priority 2013, published 2016).

Target: T1, human full-length MKNK1 (Homo sapiens, UniProt Q9BUB5, T385D)
T1 construct: GST (N); purchased Carna Biosciences 02-145; host or cells: insect cells, baculovirus expression system
Assay: MKNK1 kinase high ATP assay (TR-FRET)
Type: biochemical
Settings: high ATP (2 mM), after preincubation with MKNK1; compounds of the present invention (Table 1a)
Procedure: MKNK1-inhibitory activity at high ATP of compounds of the present invention after their preincubation with MKNK1 was quantified employing the TR-FRET-based MKNK1 high ATP assay as described in the following paragraphs.
A recombinant fusion protein of Glutathione-S-Transferase (GST, N-terminally) and human full-length MKNK1 (amino acids 1-424 and T344D of accession number BAA 19885.1), expressed in insect cells using baculovirus expression system and purified via glutathione sepharose affinity chromatography, was purchased from Carna Biosciences (product no 02-145) and used as enzyme. As substrate for the kinase reaction the biotinylated peptide biotin-Ahx-IKKRKLTRRKSLKG (C-terminus in amide form) was used, which can be purchased e.g. from the company Biosyntan (Berlin-Buch, Germany).
For the assay 50 nL of a 100 fold concentrated solution of the test compound in DMSO was pipetted into a black low volume 384 well microtiter plate (Greiner Bio-One, Frickenhausen, Germany), 2 μL of a solution of MKNK1 in aqueous assay buffer [50 mM HEPES pH 7.5, 5 mM MgCl2, 1.0 mM dithiothreitol, 0.005% (v/v) Nonidet-P40 (Sigma)] was added and the mixture was incubated for 15 min at 22° C. to allow pre-binding of the test compounds to the enzyme before the start of the kinase reaction. Then the kinase reaction was started by the addition of 3 μL of a solution of adenosine-tri-phosphate (ATP, 3.3 mM=>final conc. in the 5 μL assay volume is 2 mM) and substrate (0.1 μM=>final conc. in the 5 μL assay volume is 0.06 μM) in assay buffer and the resulting mixture was incubated for a reaction time of 30 min at 22° C. The concentration of MKNK1 was adjusted depending of the activity of the enzyme lot and was chosen appropriate to have the assay in the linear range, typical concentrations were in the range of 0.003 μg/mL. The reaction was stopped by the addition of 5 μL of a solution of TR-FRET detection reagents (5 nM streptavidine-XL665 [Cisbio Bioassays, Codolet, France] and 1 nM anti-ribosomal protein […] (pSer236)-antibody from Invitrogen [#44921G] and 1 nM LANCE EU-W1024 labeled ProteinG [Perkin-Elmer, product no. AD0071]) in an aqueous EDTA-solution (100 mM EDTA, 0.1% (w/v) bovine serum albumin in 50 mM HEPES pH 7.5).
The resulting mixture was incubated for 1 h at 22° C. to allow the formation of complex between the phosphorylated biotinylated peptide and the detection reagents. Subsequently the amount of phosphorylated substrate was evaluated by measurement of the resonance energy transfer from the Eu-chelate to the streptavidine-XL. Therefore, the fluorescence emissions at 620 nm and 665 nm after excitation at 350 nm were measured in a TR-FRET reader, e.g. a Rubystar (BMG Labtechnologies, Offenburg, Germany) or a Viewlux (Perkin-Elmer). The ratio of the emissions at 665 nm and at […] was taken as the measure for the amount of phosphorylated substrate. The data were normalised (enzyme reaction without inhibitor=0% inhibition, all other assay components but no enzyme=100% inhibition). […] Table 1a lists MKNK1 high ATP IC50 values of some compounds of the present invention.

T1 sequence (Q9BUB5 1-424 isoform Q9BUB5-2 T344D): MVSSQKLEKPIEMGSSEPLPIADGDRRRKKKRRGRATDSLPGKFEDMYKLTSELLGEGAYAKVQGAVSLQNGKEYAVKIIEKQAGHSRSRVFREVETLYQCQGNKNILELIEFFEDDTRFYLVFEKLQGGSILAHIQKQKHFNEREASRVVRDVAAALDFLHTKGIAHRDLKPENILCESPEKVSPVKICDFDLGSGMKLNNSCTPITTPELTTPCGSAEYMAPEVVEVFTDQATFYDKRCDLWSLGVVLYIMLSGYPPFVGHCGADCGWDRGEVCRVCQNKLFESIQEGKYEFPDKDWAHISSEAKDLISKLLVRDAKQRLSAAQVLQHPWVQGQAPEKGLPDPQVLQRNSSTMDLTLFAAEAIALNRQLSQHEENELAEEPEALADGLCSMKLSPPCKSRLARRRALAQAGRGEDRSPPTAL

| SMILES | IC50 |
| --- | --- |
| COc1cc2[nH]ncc2cc1Nc1ncnc2sc3c(c12)CC[C@@](C)(C(=O)N1CCC1)C3 [Example 61, (7R) Azetidin-1-yl{(7S)-4-[(6-methoxy-1H-indazol-5-yl)amino]-7-methyl-5,6,7,8-tetrahydro[1]benzothieno[2,3-d]pyrimidin-7-yl}methanone] | 11.7 nM |
| COCC1(OC)CCc2c(sc3ncnc(Nc4cc5cn[nH]c5cc4Cl)c23)C1 (single isomer, unassigned) [Example 47, (7S) or (7R) N-(6-Chloro-1H-indazol-5-yl)-7-methoxy-7-(methoxymethyl)-5,6,7,8-tetrahydro[1]benzothieno[2,3-d]pyrimidin-4-amine] | 165 nM |
| COCC1(OC)CCc2c(sc3ncnc(Nc4cc5cn[nH]c5cc4C)c23)C1 (racemic) [Example 29, (RS)-7-methoxy-7-(methoxymethyl)-N-(6-methyl-1H-indazol-5-yl)-5,6,7,8-tetrahydro[1]benzothieno[2,3-d]pyrimidin-4-amine] | 984 nM |
| CN(C)C1CCc2c(sc3ncnc(Nc4ccc5[nH]ncc5c4)c23)C1 (racemic) [Example 35, (RS)—N^4-(1H-Indazol-5-yl)-N^7,N^7-dimethyl-5,6,7,8-tetrahydro[1]benzothieno[2,3-d]pyrimidine-4,7-diamine] | 220 nM |
| CC[C@@]1(C(=O)N(C)C(C)C)CCc2c(sc3ncnc(Nc4cc5cn[nH]c5cc4OC)c23)C1 [Example 72, (7R) 7-Ethyl-N-isopropyl-4-[(6-methoxy-1H-indazol-5-yl)amino]-N-methyl-5,6,7,8-tetrahydro[1]benzothieno[2,3-d]pyrimidine-7-carboxamide] | 38.4 nM |
| COc1cc2[nH]ncc2cc1Nc1ncnc2sc3c(c12)CC[C@@](C)(C(=O)N(C)OC)C3 [Example 59, (7R) N-Methoxy-4-[(6-methoxy-1H-indazol-5-yl)amino]-N,7-dimethyl-5,6,7,8-tetrahydro[1]benzothieno[2,3-d]pyrimidine-7-carboxamide] | 12.9 nM |
| COCC1(OC)CCc2c(sc3ncnc(Nc4cc5cn[nH]c5cc4F)c23)C1 (racemic) [Example 30, (RS)—N-(6-Fluoro-1H-indazol-5-yl)-7-methoxy-7-(methoxymethyl)-5,6,7,8-tetrahydro[1]benzothieno[2,3-d]pyrimidin-4-amine] | 89.4 nM |
| COCC1(OC)CCc2c(sc3ncnc(Nc4cc5cn[nH]c5cc4F)c23)C1 (single isomer, unassigned) [Example 44, (7R) or (7S) N-(6-Fluoro-1H-indazol-5-yl)-7-methoxy-7-(methoxymethyl)-5,6,7,8-tetrahydro[1]benzothieno[2,3-d]pyrimidin-4-amine] | 74.3 nM |
| COc1cc2[nH]ncc2cc1Nc1ncnc2sc3c(c12)CC[C@](C)(C(=O)N1CCC1)C3 [Example 60, (7S) Azetidin-1-yl{(7S)-4-[(6-methoxy-1H-indazol-5-yl)amino]-7-methyl-5,6,7,8-tetrahydro[1]benzothieno[2,3-d]pyrimidin-7-yl}methanone] | 3.7 nM |
| COCC1(OC)CCc2c(sc3ncnc(Nc4cc5cn[nH]c5cc4F)c23)C1 (single isomer, unassigned) [Example 45, (7S) or (7R) N-(6-Fluoro-1H-indazol-5-yl)-7-methoxy-7-(methoxymethyl)-5,6,7,8-tetrahydro[1]benzothieno[2,3-d]pyrimidin-4-amine] | 89 nM |
| COCC1(OC)CCc2c(sc3ncnc(Nc4ccc5[nH]ncc5c4)c23)C1 (single isomer, unassigned) [Example 38, (7R) or (7S) N-(1H-Indazol-5-yl)-7-methoxy-7-(methoxymethyl)-5,6,7,8-tetrahydro[1]benzothieno[2,3-d]pyrimidin-4-amine] | 106 nM |
| OCc1cnnn1C[C@@H]1CCc2c(sc3ncnc(Nc4ccc5[nH]ncc5c4)c23)C1 (single isomer, unassigned) [Example 33, (1-{[(7R or 7S)-4-(1H-Indazol-5-ylamino)-5,6,7,8-tetrahydro[1]benzothieno[2,3-d]pyrimidin-7-yl]methyl}-1H-1,2,3-triazol-5-yl)methanol] | 16.9 nM |
| CC(C)(O)C1CCc2c(sc3ncnc(Nc4ccc5[nH]ncc5c4)c23)C1 (racemic) [Example 4, (RS)-2-[4-(1H-Indazol-5-ylamino)-5,6,7,8-tetrahydro[1]benzothieno[2,3-d]pyrimidin-7-yl]propan-2-ol] | 39.1 nM |
| COc1cc2[nH]ncc2cc1Nc1ncnc2sc3c(c12)CCC(CNC(=O)C(C)(C)O)C3 (racemic) [Example 22, (RS)-2-Hydroxy-N-({4-[(6-methoxy-1H-indazol-5-yl)amino]-5,6,7,8-tetrahydro[1]benzothieno[2,3-d]pyrimidin-7-yl}methyl)-2-methylpropanamide] | 4 nM |
| CC[C@]1(C(=O)N(C)CCOC)CCc2c(sc3ncnc(Nc4cc5cn[nH]c5cc4OC)c23)C1 [Example 65, (7S) 7-Ethyl-N-(2-methoxyethyl)-4-[(6-methoxy-1H-indazol-5-yl)amino]-N-methyl-5,6,7,8-tetrahydro[1]benzothieno[2,3-d]pyrimidine-7-carboxamide] | 3 nM |
| O=C(NCC1CCc2c(sc3ncnc(Nc4ccc5[nH]ncc5c4)c23)C1)[C@@H](O)Cc1ccccc1 (mixture of isomers) [Example 14, (2R)-2-Hydroxy-N-{[(7RS)-4-(1H-indazol-5-ylamino)-5,6,7,8-tetrahydro[1]benzothieno[2,3-d]pyrimidin-7-yl]methyl}-3-phenylpropanamide] | 17 nM |
| CC(C)NC(=O)NCC1CCc2c(sc3ncnc(Nc4ccc5[nH]ncc5c4)c23)C1 (racemic) [Example 8, (RS)-1-{[4-(1H-Indazol-5-ylamino)-5,6,7,8-tetrahydro[1]benzothieno[2,3-d]pyrimidin-7-yl]methyl}-3-propan-2-ylurea] | 34.4 nM |
| CC[C@]1(C(=O)N(C)C)CCc2c(sc3ncnc(Nc4cc5cn[nH]c5cc4OC)c23)C1 [Example 51, (7S) 7-Ethyl-4-[(6-methoxy-1H-indazol-5-yl)amino]-N,N-dimethyl-5,6,7,8-tetrahydro[1]benzothieno[2,3-d]pyrimidine-7-carboxamide] | 1.7 nM |
| CC[C@]1(C(=O)N(C)OC)CCc2c(sc3ncnc(Nc4cc5cn[nH]c5cc4OC)c23)C1 [Example 67, (7S) 7-Ethyl-N-methoxy-4-[(6-methoxy-1H-indazol-5-yl)amino]-N-methyl-5,6,7,8-tetrahydro[1]benzothieno[2,3-d]pyrimidine-7-carboxamide] | 1.8 nM |
| N[C@@H](CCO)C(=O)NCC1CCc2c(sc3ncnc(Nc4ccc5[nH]ncc5c4)c23)C1 (mixture of isomers) [Example 16, N-{[(7RS)-4-(1H-Indazol-5-ylamino)-5,6,7,8-tetrahydro[1]benzothieno[2,3-d]pyrimidin-7-yl]methyl}-L-homoserinamide] | 20.8 nM |
| OCc1cn(C[C@@H]2CCc3c(sc4ncnc(Nc5ccc6[nH]ncc6c5)c34)C2)nn1 (single isomer, unassigned) [Example 34, (1-{[(7R or 7S)-4-(1H-Indazol-5-ylamino)-5,6,7,8-tetrahydro[1]benzothieno[2,3-d]pyrimidin-7-yl]methyl}-1H-1,2,3-triazol-4-yl)methanol] | 20.5 nM |
| COc1cc2[nH]ncc2cc1Nc1ncnc2sc3c(c12)CCCC3 [Example 2, N-(6-methoxy-1H-indazol-5-yl)-5,6,7,8-tetrahydro[1]benzothieno[2,3-d]pyrimidin-4-amine] | 13.5 nM |
| CC[C@@]1(C(=O)N(C)OC)CCc2c(sc3ncnc(Nc4cc5cn[nH]c5cc4OC)c23)C1 [Example 66, (7R) 7-Ethyl-N-methoxy-4-[(6-methoxy-1H-indazol-5-yl)amino]-N-methyl-5,6,7,8-tetrahydro[1]benzothieno[2,3-d]pyrimidine-7-carboxamide] | 20.4 nM |
| COCC1(OC)CCc2c(sc3ncnc(Nc4cc5cn[nH]c5cc4OC)c23)C1 (single isomer, unassigned) [Example 43, (7S) or (7R) 7-Methoxy-N-(6-methoxy-1H-indazol-5-yl)-7-(methoxymethyl)-5,6,7,8-tetrahydro[1]benzothieno[2,3-d]pyrimidin-4-amine] | 12.5 nM |
